Common to all, as to experiment: biochemical
Assay [1] concerns the target DRB1*1201 (Homo sapiens, UniProt P01903+P01911, A100R/A169T/D57E/D86V/F55L/H45Y/K41T/L162R/M171V/P40S/Q125H/Q178H/Q39Y/Q99D/R42G/S66L/T262R/V114A/V67L/W38E/Y59H/Y61H/Y89S). Type of assay: binding.
Assay [2] addresses DRB1*0301 (Homo sapiens, UniProt P01903+P01911, A100K/A102G/A103R/A169T/F55Y/I96L/K41T/L162R/M171V/P40S/Q125H/Q178H/Q39Y/R42S/S66N/T106N/T262R/W38E/Y61H). It is filed as binding.
For assay [3], the target named is DRB3*0101 (Homo sapiens, UniProt P01903+P79483). Type of assay: binding.
Assay [4] deals with DRB1*0802 (Homo sapiens, UniProt P01903+P01911, A100R/A103L/A169T/F76Y/H45Y/I96F/K41T/L162R/M171V/P40S/Q125H/Q178H/Q39Y/Q99D/R218S/R42G/S66Y/V115G/W38E). Type of assay: binding.
Assay [5] concerns the target DRB5*0101 (Homo sapiens, UniProt P01903+Q30154).
Assay [6] has as its target DRB1*0901 (Homo sapiens, UniProt P01903+P01911, A100R/A103E/D57H/D86V/F55Y/F60I/F76Y/I96F/K127E/L162R/M171V/P40D/Q125H/Q99R/R33Q/R42F/S133A/S66N/T210M/V115G/W38K/Y107V/Y59G/Y89S). Type of assay: binding.
Assay [7] addresses DRB1*1501 (Homo sapiens, UniProt P01903+P01911). It is filed as binding.
Assay [8] addresses DRB1*1101 (Homo sapiens, UniProt P01903+P01911, A100R/A169T/A87E/I96F/K41T/L162R/M171V/P40S/Q125H/Q178H/Q39Y/Q99D/R42S/S66Y/T262R/V115G/W38E).
The target of assay [9] is DRB1*1302 (Homo sapiens, UniProt P01903+P01911, A100E/A169T/K41T/L162R/M171V/P40S/Q125H/Q178H/Q39Y/Q99D/R42S/S66N/T262R/V115G/W38E/Y61H). It is filed as binding.
In assay [10] the target is DR7 (DRB1*0701) (Homo sapiens, UniProt P01903+P01911, A100R/A102G/A103Q/D57E/D86V/E43K/F76Y/K127E/L162R/M171V/P40G/Q125H/Q99D/R33Q/R42Y/R54Q/S133A/S66F/T210M/V115G/Y107V/Y59L/Y89S). It is filed as binding.
Assay [11] concerns the target DRB4*0101 (Homo sapiens, UniProt P01903+P13762, G164S). It is filed as binding.
In assay [12] the target is DR4w4 (DRB1*0401) (Homo sapiens, UniProt P01903+P01911, A100K/A169T/F76Y/I96L/K127E/L162R/M171V/N62H/P40V/Q125Y/R42H/S133A/S149N/S66Y/V115G/V209L/W38E). It is filed as binding.
For assay [13], the target named is DR1 (DRB1*0101) (Homo sapiens, UniProt P01903+P01911, A100R/D57E/F55L/F60I/F76Y/I96L/L162R/M171V/P40L/Q125E/R42F/V115G/Y59C). Type of assay: binding.
Assay [14] deals with DRB1*0405 (Homo sapiens, UniProt P01903+P01911, A100R/A169T/D86S/F76Y/I96L/K127E/L162R/M171V/N62H/P40V/Q125Y/R42H/S133A/S149N/S66Y/V115G/V209L/W38E). Type of assay: binding.

Where two headings read alike, the source gives them in different places. No end group written: not given here.

Sequence of DRB1*1101 (P01903 26-254 limits assumed, other chains not shown): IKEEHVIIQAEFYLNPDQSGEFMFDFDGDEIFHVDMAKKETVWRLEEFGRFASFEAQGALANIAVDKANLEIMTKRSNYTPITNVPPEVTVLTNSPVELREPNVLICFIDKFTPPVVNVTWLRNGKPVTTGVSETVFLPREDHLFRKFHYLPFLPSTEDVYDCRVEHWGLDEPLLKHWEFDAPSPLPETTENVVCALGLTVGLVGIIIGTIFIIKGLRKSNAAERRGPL
Sequence of DRB1*0301 (P01903 26-254 limits assumed, other chains not shown): as above
Sequence of DRB1*1302 (P01903 26-254 limits assumed, other chains not shown): as above

Turning to `CC(C)C[C@H](NC(=O)[C@H](Cc1ccccc1)NC(=O)CNC(=O)[C@H](CC(C)C)NC(=O)[C@H](CO)NC(=O)[C@H](CC(C)C)NC(=O)[C@H](CO)NC(=O)[C@H](C)NC(=O)[C@H](C)NC(=O)[C@H](CCCNC(=N)N)NC(=O)[C@H](C)NC(=O)[C@H](CC(C)C)NC(=O)[C@H](CC(C)C)NC(=O)[C@H](CC(C)C)NC(=O)[C@@H]1CCCN1)C(=O)O` [Peptide 68.0021], the figures for the IC50 in assay [1], in assay [2] and in [3] were 1.51 µM, > 20 µM and > 20 µM, respectively.

For the compound `CC[C@H](C)[C@H](NC(=O)[C@@H]1CCCN1C(=O)[C@H](CC(N)=O)NC(=O)[C@@H](N)Cc1c[nH]c2ccccc12)C(=O)N[C@@H](CC(C)C)C(=O)N[C@@H](CC(C)C)C(=O)N[C@@H](Cc1c[nH]c2ccccc12)C(=O)N[C@@H](CCC(N)=O)C(=O)N1CCC[C@H]1C(=O)N[C@H](C(=O)N1CCC[C@H]1C(=O)N[C@H](C(=O)N[C@@H](Cc1c[nH]cn1)C(=O)N[C@H](C(=O)N[C@H](C(=O)O)C(C)C)[C@@H](C)O)C(C)C)[C@@H](C)CC` [Peptide 68.0035], the IC50 is 5.69 µM in assay [1], > 20 µM in [2], > 20 µM in [3] and > 20 µM in [4].

As to `CC[C@H](C)[C@H](NC(=O)[C@@H]1CCCN1C(=O)[C@@H](N)CC(N)=O)C(=O)N[C@@H](CC(C)C)C(=O)N[C@@H](CC(C)C)C(=O)N[C@@H](Cc1c[nH]c2ccccc12)C(=O)N[C@@H](CCC(N)=O)C(=O)N1CCC[C@H]1C(=O)N[C@H](C(=O)N1CCC[C@H]1C(=O)N[C@H](C(=O)N[C@@H](Cc1c[nH]cn1)C(=O)N[C@H](C(=O)N[C@H](C(=O)N1CCC[C@H]1C(=O)O)C(C)C)[C@@H](C)O)C(C)C)[C@@H](C)CC` [Peptide 68.0036], the IC50 in assay [1] was 0.612 µM; in [5] (Binding affinity DRB5 *0101), > 20 µM; in [2], > 20 µM; in [3], > 20 µM.

In the case of `CC[C@H](C)[C@H](NC(=O)[C@@H]1CCCN1)C(=O)N[C@@H](CC(C)C)C(=O)N[C@@H](CC(C)C)C(=O)N[C@@H](Cc1c[nH]c2ccccc12)C(=O)N[C@@H](CCC(N)=O)C(=O)N1CCC[C@H]1C(=O)N[C@H](C(=O)N1CCC[C@H]1C(=O)N[C@H](C(=O)N[C@@H](Cc1c[nH]cn1)C(=O)N[C@H](C(=O)N[C@H](C(=O)N1CCC[C@H]1C(=O)N[C@@H](CC(C)C)C(=O)O)C(C)C)[C@@H](C)O)C(C)C)[C@@H](C)CC` [Peptide 68.0037], the IC50 in assay [1] is 2.37 µM; in assay [5] (Binding affinity DRB5 *0101) it was > 20 µM; in assay [2] it was > 20 µM; in assay [3], > 20 µM; in assay [4], > 20 µM.

On to `CC[C@H](C)[C@H](NC(=O)[C@H](Cc1c[nH]c2ccccc12)NC(=O)[C@@H](NC(=O)[C@@H](N)C(C)C)[C@@H](C)O)C(=O)NCC(=O)N[C@@H](C)C(=O)N[C@@H](C)C(=O)N1CCC[C@H]1C(=O)N[C@@H](CC(C)C)C(=O)N[C@H](C(=O)N[C@@H](CC(C)C)C(=O)N[C@@H](CO)C(=O)N[C@@H](CCCNC(=N)N)C(=O)N[C@H](C(=O)N[C@H](C(=O)O)C(C)C)[C@@H](C)CC)[C@@H](C)CC` [Peptide 68.0060], for which the IC50 in assay [1] was 0.818 µM; in [2], > 20 µM; in assay [3], > 20 µM.

On to `CC(C)C[C@H](NC(=O)[C@@H](NC(=O)[C@H](CCC(N)=O)NC(=O)[C@H](Cc1c[nH]c2ccccc12)NC(=O)[C@@H]1CCCN1C(=O)[C@H](CCC(N)=O)NC(=O)[C@@H](N)CO)C(C)C)C(=O)N[C@H](C(=O)N[C@@H](C)C(=O)N[C@@H](CO)C(=O)N[C@@H](CCCNC(=N)N)C(=O)NCC(=O)N[C@@H](CCCNC(=N)N)C(=O)N[C@@H](C)C(=O)N[C@H](C(=O)O)C(C)C)C(C)C` [Peptide 68.0061], for which the IC50 in assay [1] was 8.78 µM; in [2] it was > 20 µM; in assay [3], > 20 µM.

For the compound `CC(C)C[C@H](NC(=O)[C@@H](NC(=O)CN)C(C)C)C(=O)N[C@H](C(=O)N[C@@H](Cc1c[nH]cn1)C(=O)N1CCC[C@H]1C(=O)N[C@@H](CCC(N)=O)C(=O)N[C@@H](Cc1c[nH]c2ccccc12)C(=O)N[C@H](C(=O)N[C@@H](CC(C)C)C(=O)N[C@H](C(=O)N[C@@H](C)C(=O)N[C@@H](C)C(=O)N[C@@H](Cc1c[nH]cn1)C(=O)N[C@@H](CS)C(=O)O)[C@@H](C)O)C(C)C)C(C)C` [Peptide 68.0063], the IC50 is 7.49 µM in assay [1], > 20 µM in assay [2] and > 20 µM in assay [3].

Turning to `CC[C@H](C)[C@H](NC(=O)[C@@H](NC(=O)[C@@H]1CCCN1C(=O)CN)C(C)C)C(=O)N1CCC[C@H]1C(=O)N[C@@H](CCC(N)=O)C(=O)N[C@@H](CC(=O)O)C(=O)N[C@@H](Cc1c[nH]c2ccccc12)C(=O)N[C@@H](CO)C(=O)N[C@H](C(=O)N[C@@H](CCC(=O)O)C(=O)N[C@@H](CS)C(=O)N[C@@H](CCSC)C(=O)N[C@H](C(=O)N[C@H](C(=O)O)[C@@H](C)O)[C@@H](C)O)[C@@H](C)O` [Peptide 68.0156], the IC50 in assay [1], in assay [2] and in assay [3] was > 20 µM in each case.

Turning to `CC[C@H](C)[C@H](NC(=O)[C@H](CC(=O)O)NC(=O)[C@H](Cc1c[nH]cn1)NC(=O)[C@@H](NC(=O)[C@@H](NC(=O)[C@@H](NC(=O)[C@H](CCC(N)=O)NC(=O)[C@H](CC(C)C)NC(=O)[C@H](CCC(=O)O)NC(=O)[C@@H](NC(=O)[C@H](CS)NC(=O)[C@@H](N)CC(C)C)[C@@H](C)O)[C@@H](C)O)[C@@H](C)O)[C@@H](C)CC)C(=O)N[C@H](C(=O)N[C@@H](CC(C)C)C(=O)N[C@@H](CCC(=O)O)C(=O)O)[C@@H](C)CC` [Peptide 1543.24], the IC50 is > 20 µM in assay [1]; > 20 µM in assay [5] (Binding affinity DRB5 *0101); > 20 µM in assay [6]; 0.08 µM in assay [2]; > 20 µM in assay [7]; > 20 µM in assay [8] (Binding affinity DRB1 *1101). The IC50 in assay [3] and in assay [4] was > 20 µM in each case.

In the case of EVFFQRLGIASGRAR [Peptide 68.0115], the IC50 in [1] was 2.94 µM; in assay [2] it was > 20 µM; in assay [3], > 20 µM.

Turning to NGVLQGITSWGPEPC [Peptide 68.0017], the IC50 was > 20 µM in assay [1]; > 20 µM in [5] (Binding affinity DRB5 *0101); > 20 µM in assay [6]; 8.43 µM in assay [2]; > 20 µM in assay [8] (Binding affinity DRB1 *1101); > 20 µM in assay [9]. Besides, the IC50 in assay [3] and in [4] was > 20 µM throughout.

Regarding TTPIIHKLGDRNSLK [Peptide 1601.17], the IC50 in [5] was 5.57 µM; in [6], > 20 µM; in assay [10], > 20 µM; in assay [11], 0.019 µM; in assay [12], 0.392 µM; in assay [2], 0.501 µM. In addition, the IC50 in assay [7] came out at 0.382 µM; in assay [8], 4.8 µM; in [13] it was 0.085 µM; in assay [9], 1.48 µM; in assay [3], 11 µM; in assay [14] it was 19 µM. In addition, half-maximal inhibition in assay [4] (IC50) was put at 0.419 µM.

For orientation: IC50 means the concentration that gives 50% inhibition. Read a high IC50 as lower potency.

These data come from patent US9340577B2, “HLA binding motifs and peptides and their uses” (priority 1992, dated 2016).
